Reference: US20240226288A1, “TRANSPLANT MATERIAL AND KIDNEY TRANSPLANT KIT” (THE JIKEI UNIVERSITY, priority 2021, published 2024)

Assay: Monitoring of recipient monkeys by blood test during immunosuppressant administration
Format: in vivo, cynomolgus monkey
Conditions: blood test after start of administration
Experimental: Regarding the start day, the day of transplantation is represented by (0), and the preceding days are represented by the minus sign (−). Specifically, in the therapy, tacrolimus (0.02 mg/kg im×2/day; day −9 from start day), abatacept (50 mg/kg iv×1/week; day 7 from start day), and mycophenolate mofetil (40 mg/kg po×2/day; day −5 from start day) were used. The administration of methylprednisolone (10 mg/kg iv) was also carried out from day 0 from the start day, which was changed to oral administration (5 mg/kg) from the next day. […] Furthermore, thymoglobulin (10 mg/kg iv on day 3), rituximab (10 mg/kg iv on day 2), tocilizumab (10 mg/kg sc on day −1, 7, and 14), and etanercept (0.5 mg/kg sc on day 0, 3, 6, and 10) were administered. The concentrations of tacrolimus and mycophenolate mofetil in blood were measured twice a week, and the dose was appropriately adjusted based on the target trough level (TAC trough level: 15 to 20 ng/mL on day −9 to 2; 9 to 12 ng/ml from day 3, MMF trough level: 4 to 6 μg/mL).
The daily dietary status and activity of the recipient monkeys were monitored, and support was provided through supplementation as needed. Furthermore, the systemic condition of the monkeys was evaluated by the measurement of body weight. body temperature, and SpO2 as well as blood sampling conducted twice a week. […]

absorption: confirmed
Structure (SMILES): COc1c(C)c2c(c(O)c1C/C=C(\C)CCC(=O)OCCN1CCOCC1)C(=O)OC2 [MMF, Mycophenolate mofetil]
